Measured values reported in PubChem BioAssay (NCI).
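Step 1: Grow cells in 96-well plates. Step 2: Expose to compound for 48 hours at 5 concentrations. Step 3: Interpolate endpoints linearly; if unreached, use highest concentration. At the GI50, growth is halved. TGI is the concentration that stops growth completely.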

Legend:
Experiment in all cases: NCI tumour cell line growth inhibition, 48 h
M14 melanoma = tested on: M14 melanoma
NCI-H460 lung = tested on: NCI-H460 lung
TK-10 renal = tested on: TK-10 renal
DU-145 prostate = tested on: DU-145 prostate
A549 NSCLC = tested on: A549 NSCLC
SW-620 colon = tested on: SW-620 colon
NCI-H23 lung = tested on: NCI-H23 lung
RPMI-8226 leukemia = tested on: RPMI-8226 leukemia
MCF7 breast = tested on: MCF7 breast
HCT-116 colon = tested on: HCT-116 colon
HS 578T breast = tested on: HS 578T breast
MDA-MB-435 = tested on: MDA-MB-435
SN12C renal = tested on: SN12C renal
SF-295 CNS = tested on: SF-295 CNS
UACC-62 melanoma = tested on: UACC-62 melanoma
NCI/ADR-RES ovarian = tested on: NCI/ADR-RES ovarian
HT29 colon = tested on: HT29 colon
MALME-3M melanoma = tested on: MALME-3M melanoma
OVCAR-5 ovarian = tested on: OVCAR-5 ovarian
K-562 leukemia = tested on: K-562 leukemia
CCRF-CEM leukemia = tested on: CCRF-CEM leukemia
HCT-15 colon = tested on: HCT-15 colon
KM12 colon = tested on: KM12 colon
SF-539 CNS = tested on: SF-539 CNS
HOP-92 NSCLC = tested on: HOP-92 NSCLC
IGROV1 ovarian = tested on: IGROV1 ovarian
CAKI-1 renal = tested on: CAKI-1 renal
PC-3 prostate = tested on: PC-3 prostate
SNB-19 CNS = tested on: SNB-19 CNS
EKVX NSCLC = tested on: EKVX NSCLC
COLO 205 colon = tested on: COLO 205 colon
NCI-H522 lung = tested on: NCI-H522 lung
SK-MEL-2 melanoma = tested on: SK-MEL-2 melanoma
HCC-2998 colon = tested on: HCC-2998 colon
SK-MEL-5 melanoma = tested on: SK-MEL-5 melanoma
UACC-257 melanoma = tested on: UACC-257 melanoma
SK-MEL-28 melanoma = tested on: SK-MEL-28 melanoma
A498 renal = tested on: A498 renal
ACHN renal = tested on: ACHN renal
MDA-MB-231 breast = tested on: MDA-MB-231 breast
MOLT-4 leukemia = tested on: MOLT-4 leukemia
U251 CNS = tested on: U251 CNS
T-47D breast = tested on: T-47D breast
SNB-75 CNS = tested on: SNB-75 CNS
SF-268 CNS = tested on: SF-268 CNS
HOP-62 NSCLC = tested on: HOP-62 NSCLC
SR leukemia = tested on: SR leukemia
BT-549 breast = tested on: BT-549 breast
RXF 393 renal = tested on: RXF 393 renal
OVCAR-3 ovarian = tested on: OVCAR-3 ovarian
OVCAR-8 ovarian = tested on: OVCAR-8 ovarian
UO-31 renal = tested on: UO-31 renal
SK-OV-3 ovarian = tested on: SK-OV-3 ovarian
786-0 renal = tested on: 786-0 renal
OVCAR-4 ovarian = tested on: OVCAR-4 ovarian
LOX IMVI melanoma = tested on: LOX IMVI melanoma
HL-60(TB) leukemia = tested on: HL-60(TB) leukemia

For `O=c1c2ccccc2n(C[C@H]2CO2)c2ccccc12`, the GI50 (M14 melanoma) was 1.67 µM, the TGI (M14 melanoma) was 3.9 µM and the GI50 (NCI-H460 lung) was 1.7 µM. The TGI (NCI-H460 lung) was 4.43 µM, the GI50 (TK-10 renal) was 2.34 µM and the TGI (TK-10 renal) was 6.77 µM. It also gave a GI50 (DU-145 prostate) of 1.35 µM, a TGI (DU-145 prostate) of 5.85 µM and a GI50 (A549 NSCLC) of 2.45 µM. It also gave a TGI (A549 NSCLC) of 7.28 µM, a GI50 (SW-620 colon) of 0.828 µM and a TGI (SW-620 colon) of 12.7 µM. The GI50 (NCI-H23 lung) was 1.42 µM, the TGI (NCI-H23 lung) was 4.52 µM and the GI50 (RPMI-8226 leukemia) was 1.94 µM. The TGI (RPMI-8226 leukemia) was 6.55 µM, the GI50 (MCF7 breast) was 0.39 µM and the TGI (MCF7 breast) was 2.98 µM. The GI50 (HCT-116 colon) was 1.12 µM, the TGI (HCT-116 colon) was 8.78 µM and the GI50 (HS 578T breast) was 2.05 µM. The TGI (HS 578T breast) was 5.89 µM, the GI50 (MDA-MB-435) was 1.61 µM and the TGI (MDA-MB-435) was 3.24 µM. It also gave a GI50 (SN12C renal) of 1.8 µM, a TGI (SN12C renal) of 7.05 µM and a GI50 (SF-295 CNS) of 2.91 µM. The TGI (SF-295 CNS) was 9.44 µM, the GI50 (UACC-62 melanoma) was 1.59 µM and the TGI (UACC-62 melanoma) was 3.11 µM. It also gave a GI50 (NCI/ADR-RES ovarian) of 1.7 µM, a TGI (NCI/ADR-RES ovarian) of 6.25 µM and a GI50 (HT29 colon) of 2.24 µM. The TGI (HT29 colon) was 7.91 µM, the GI50 (MALME-3M melanoma) was 1.65 µM and the TGI (MALME-3M melanoma) was 3.19 µM. The GI50 (OVCAR-5 ovarian) was 2.44 µM, the TGI (OVCAR-5 ovarian) was 6.41 µM and the GI50 (K-562 leukemia) was 2.2 µM. The TGI (K-562 leukemia) was over 100 µM, the GI50 (CCRF-CEM leukemia) was 0.771 µM and the TGI (CCRF-CEM leukemia) was 21.7 µM. It also gave a GI50 (HCT-15 colon) of 1.68 µM, a TGI (HCT-15 colon) of 5.27 µM and a GI50 (KM12 colon) of 2.19 µM. The TGI (KM12 colon) was 7.02 µM, the GI50 (SF-539 CNS) was 1.77 µM and the TGI (SF-539 CNS) was 3.68 µM. The GI50 (HOP-92 NSCLC) was 2.03 µM, the TGI (HOP-92 NSCLC) was 5.27 µM and the GI50 (IGROV1 ovarian) was 1.53 µM. For the same molecule, the TGI (IGROV1 ovarian) was 5.6 µM, the GI50 (CAKI-1 renal) was 1.83 µM and the TGI (CAKI-1 renal) was 8.26 µM. For the same molecule, the GI50 (PC-3 prostate) was 2.04 µM, the TGI (PC-3 prostate) was 8.34 µM and the GI50 (SNB-19 CNS) was 2.3 µM. The TGI (SNB-19 CNS) was 7.79 µM, the GI50 (EKVX NSCLC) was 2.56 µM and the TGI (EKVX NSCLC) was 6.44 µM. For the same molecule, the GI50 (COLO 205 colon) was 1.49 µM, the TGI (COLO 205 colon) was 4.15 µM and the GI50 (NCI-H522 lung) was 1.61 µM. The TGI (NCI-H522 lung) was 3.74 µM, the GI50 (SK-MEL-2 melanoma) was 1.96 µM and the TGI (SK-MEL-2 melanoma) was 3.83 µM. It also gave a GI50 (HCC-2998 colon) of 1.51 µM, a TGI (HCC-2998 colon) of 3.44 µM and a GI50 (SK-MEL-5 melanoma) of 1.52 µM. It also gave a TGI (SK-MEL-5 melanoma) of 2.9 µM, a GI50 (UACC-257 melanoma) of 2.1 µM and a TGI (UACC-257 melanoma) of 4.46 µM. It also gave a GI50 (SK-MEL-28 melanoma) of 2.4 µM, a TGI (SK-MEL-28 melanoma) of 5.76 µM and a GI50 (A498 renal) of 2.62 µM. For the same molecule, the TGI (A498 renal) was 6.57 µM, the GI50 (ACHN renal) was 0.886 µM and the TGI (ACHN renal) was 3.9 µM. The GI50 (MDA-MB-231 breast) was 2.07 µM, the TGI (MDA-MB-231 breast) was 5.24 µM and the GI50 (MOLT-4 leukemia) was 0.29 µM. For the same molecule, the TGI (MOLT-4 leukemia) was 2.35 µM, the GI50 (U251 CNS) was 1.82 µM and the TGI (U251 CNS) was 7.3 µM. It also gave a GI50 (T-47D breast) of 2.53 µM, a TGI (T-47D breast) of 8.38 µM and a GI50 (SNB-75 CNS) of 1.52 µM. It also gave a TGI (SNB-75 CNS) of 3.46 µM, a GI50 (SF-268 CNS) of 1.62 µM and a TGI (SF-268 CNS) of 5.97 µM. For the same molecule, the GI50 (HOP-62 NSCLC) was 2.13 µM, the TGI (HOP-62 NSCLC) was 5.84 µM and the GI50 (SR leukemia) was 0.302 µM. The TGI (SR leukemia) was 4.37 µM, the GI50 (BT-549 breast) was 1.91 µM and the TGI (BT-549 breast) was 6.08 µM. It also gave a GI50 (RXF 393 renal) of 1.39 µM, a TGI (RXF 393 renal) of 2.82 µM and a GI50 (OVCAR-3 ovarian) of 2.31 µM. It also gave a TGI (OVCAR-3 ovarian) of 7.19 µM, a GI50 (OVCAR-8 ovarian) of 1.26 µM and a TGI (OVCAR-8 ovarian) of 5.35 µM. It also gave a GI50 (UO-31 renal) of 1.72 µM, a TGI (UO-31 renal) of 4.96 µM and a GI50 (SK-OV-3 ovarian) of 2.64 µM. The TGI (SK-OV-3 ovarian) was 7.33 µM, the GI50 (786-0 renal) was 2.75 µM and the TGI (786-0 renal) was 8.17 µM. The GI50 (OVCAR-4 ovarian) was 2.4 µM, the TGI (OVCAR-4 ovarian) was 7.89 µM and the GI50 (LOX IMVI melanoma) was 1.51 µM. The TGI (LOX IMVI melanoma) was 3.15 µM, the GI50 (HL-60(TB) leukemia) was 1.28 µM and the TGI (HL-60(TB) leukemia) was 3.29 µM.
